These results are taken from US11603373B2, “TDO2 and IDO1 inhibitors” (Genentech, Inc., priority 2017, dated 2023).

Assay [1] addresses T1, TDO2 (SW48 cells, high TDO expressing cells) (Homo sapiens, UniProt P48775).
T1 construct: SW48 cells (high TDO expressing cells); endogenous in cells; host or cells: SW48 cells
The experiment in a line: NFK GreenScreen cell assay, inhibition of TDO in SW48 cells. Type of assay: cell-based. Particulars: read-out: TDO2 Cell Fluor EC50. The text has this:
(§1) Cells are counted on a Vi-Cell (Beckman Coulter). […] The final DMSO concentration is 0.5%.

For assay [2], the target named is T2, IDO1 (A172+IFNg cells, high IDO expressing cells) (Homo sapiens, UniProt P14902).
T2 construct: A172+IFNg cells (high IDO expressing cells); endogenous in cells; host or cells: A172 cells induced with 100 ng/ml IFNγ
T2 sequence (P14902 whole entry): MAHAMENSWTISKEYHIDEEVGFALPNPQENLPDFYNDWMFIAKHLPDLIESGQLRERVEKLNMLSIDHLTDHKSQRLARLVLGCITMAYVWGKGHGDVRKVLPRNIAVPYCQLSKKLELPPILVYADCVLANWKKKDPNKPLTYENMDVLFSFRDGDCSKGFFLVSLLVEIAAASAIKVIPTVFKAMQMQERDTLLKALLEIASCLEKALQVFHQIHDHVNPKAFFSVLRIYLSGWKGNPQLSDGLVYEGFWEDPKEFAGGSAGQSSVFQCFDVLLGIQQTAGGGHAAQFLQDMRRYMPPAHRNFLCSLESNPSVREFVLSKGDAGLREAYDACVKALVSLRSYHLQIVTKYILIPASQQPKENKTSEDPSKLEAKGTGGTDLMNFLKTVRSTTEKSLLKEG
The experiment in a line: NFK GreenScreen cell assay, inhibition of IDO in A172+IFNg cells. The class given is cell-based. Particulars: read-out: IDO cell Fluor EC50.
Source text: as §1

Molecules are shown by their SMILES.

T1 sequence (P48775 whole entry): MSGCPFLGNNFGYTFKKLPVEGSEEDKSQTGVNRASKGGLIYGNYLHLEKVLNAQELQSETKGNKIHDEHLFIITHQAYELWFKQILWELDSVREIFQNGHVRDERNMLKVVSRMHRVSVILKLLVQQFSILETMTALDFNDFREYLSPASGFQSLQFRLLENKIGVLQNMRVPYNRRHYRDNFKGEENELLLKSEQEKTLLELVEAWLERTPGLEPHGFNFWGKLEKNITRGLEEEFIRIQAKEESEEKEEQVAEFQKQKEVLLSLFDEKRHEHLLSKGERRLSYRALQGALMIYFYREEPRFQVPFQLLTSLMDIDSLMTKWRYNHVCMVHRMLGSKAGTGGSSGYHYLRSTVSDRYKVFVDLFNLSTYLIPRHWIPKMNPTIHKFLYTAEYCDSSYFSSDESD

The term EC50 denotes the concentration needed to bring the measured effect to its halfway point. In the case of `NC(=O)N1CCCC(C(=O)N2CCC3(CC2)CC(C2c4ccccc4-c4cncn42)C3O)C1` (stereo not shown) [compound 64, 3-[3-hydroxy-2-(5H-imidazo[1,5-b]isoindol-5-yl)-7-azaspiro[3.5]nonane-7-carbonyl]piperidine-1-carboxamide], the EC50 in assay [1] was found to be 13 µM; in assay [2], 17 µM.

Take `O=C(C1CCS(=O)(=O)C1)N1CCC2(CC1)C[C@@H]([C@H]1c3ccccc3-c3cncn31)[C@H]2O` (stereo partly shown) [compound 65, (1,1-dioxothiolan-3-yl)-[3-hydroxy-2-(5H-imidazo[1,5-b]isoindol-5-yl)-7-azaspiro[3.5]nonan-7-yl]methanone]: the EC50 in assay [1] came out at 9 µM; in assay [2], 6.3 µM.

As to `NC(=O)N1CCC(C(=O)N2CCC3(CC2)CC(C2c4ccccc4-c4cncn42)C3O)CC1` (stereo not shown) [compound 66, 4-[3-hydroxy-2-(5H-imidazo[1,5-b]isoindol-5-yl)-7-azaspiro[3.5]nonane-7-carbonyl]piperidine-1-carboxamide], the EC50 in assay [1] was found to be 14 µM; in assay [2], 13 µM.

For the compound `CC(=O)N1CCC(C(=O)N2CCC3(CC2)C[C@@H]([C@H]2c4ccccc4-c4cncn42)[C@H]3O)CC1` [compound 68, 1-[4-[3-hydroxy-2-(5H-imidazo[1,5-b]isoindol-5-yl)-7-azaspiro[3.5]nonane-7-carbonyl]-1-piperidyl]ethanone], the EC50 in assay [1] is 5.7 µM; in assay [2], 3.4 µM.

For `O=C(C(F)F)N1CCC2(CC1)CC(C1c3ccccc3-c3cncn31)C2O` (stereo not shown) [compound 69, 2,2-difluoro-1-[3-hydroxy-2-(5H-imidazo[1,5-b]isoindol-5-yl)-7-azaspiro[3.5]nonan-7-yl]ethanone], the EC50 in assay [1] was 0.37 µM; in assay [2] it was 0.35 µM.
